Numbers after ± are expanded uncertainties.
Columns and labels:
[1] = 101.33 kPa, Liquid, Vibrating tube method
[2] = relative permittivity at zero frequency (dimensionless); details: 101.33 kPa, Liquid, AC method
[3] = xn = mol fraction of the nth substance listed; details: 101.3 kPa, Liquid, Vibrating tube method
[4] = relative permittivity at zero frequency (dimensionless); xn = mol fraction of the nth substance listed; details: 101.3 kPa, Liquid, AC Method

COCCOC [1,2-dimethoxyethane]
Details | mass density, 288.15 K [kg/m3] | mass density, 298.15 K [kg/m3] | mass density, 308.15 K [kg/m3] | relative permittivity at zero frequency, 288.15 K | relative permittivity at zero frequency, 298.15 K | relative permittivity at zero frequency, 308.15 K
[1] | 872.05 ± 0.22 | 861.14 ± 0.22 | 850.06 ± 0.22 | – | – | –
[2] | – | – | – | 7.41 ± 0.15 | 7.07 ± 0.14 | 6.75 ± 0.14

COCCOC [1,2-dimethoxyethane] + CCCCCCC
Details | mass density [kg/m3] | relative permittivity at zero frequency
[3], 288.15 K, x2 = 0.0495 | 857.82 ± 0.23 | –
[3], 288.15 K, x2 = 0.0995 | 844.28 ± 0.23 | –
[3], 288.15 K, x2 = 0.2045 | 818.14 ± 0.23 | –
[3], 288.15 K, x2 = 0.2979 | 797.21 ± 0.24 | –
[3], 288.15 K, x2 = 0.403 | 775.91 ± 0.25 | –
[3], 288.15 K, x2 = 0.5042 | 757.33 ± 0.25 | –
[3], 288.15 K, x2 = 0.5998 | 741.27 ± 0.26 | –
[3], 288.15 K, x2 = 0.7021 | 725.61 ± 0.27 | –
[3], 288.15 K, x2 = 0.8053 | 711.33 ± 0.28 | –
[3], 288.15 K, x2 = 0.8998 | 699.44 ± 0.29 | –
[3], 288.15 K, x2 = 0.9508 | 693.43 ± 0.3 | –
[3], 298.15 K, x2 = 0.0503 | 846.65 ± 0.23 | –
[3], 298.15 K, x2 = 0.0974 | 834.02 ± 0.23 | –
[3], 298.15 K, x2 = 0.2008 | 808.4 ± 0.23 | –
[3], 298.15 K, x2 = 0.2994 | 786.5 ± 0.24 | –
[3], 298.15 K, x2 = 0.401 | 766.2 ± 0.25 | –
[3], 298.15 K, x2 = 0.5026 | 747.97 ± 0.25 | –
[3], 298.15 K, x2 = 0.5967 | 732.41 ± 0.26 | –
[3], 298.15 K, x2 = 0.6994 | 716.96 ± 0.27 | –
[3], 298.15 K, x2 = 0.8019 | 702.94 ± 0.28 | –
[3], 298.15 K, x2 = 0.9009 | 690.67 ± 0.29 | –
[3], 298.15 K, x2 = 0.9509 | 684.9 ± 0.3 | –
[3], 308.15 K, x2 = 0.0496 | 836.12 ± 0.23 | –
[3], 308.15 K, x2 = 0.0998 | 822.77 ± 0.23 | –
[3], 308.15 K, x2 = 0.2009 | 798.1 ± 0.24 | –
[3], 308.15 K, x2 = 0.3035 | 775.66 ± 0.24 | –
[3], 308.15 K, x2 = 0.4011 | 756.35 ± 0.25 | –
[3], 308.15 K, x2 = 0.5021 | 738.24 ± 0.26 | –
[3], 308.15 K, x2 = 0.6 | 722.36 ± 0.26 | –
[3], 308.15 K, x2 = 0.7018 | 707.33 ± 0.27 | –
[3], 308.15 K, x2 = 0.8036 | 693.71 ± 0.28 | –
[3], 308.15 K, x2 = 0.9014 | 681.82 ± 0.29 | –
[3], 308.15 K, x2 = 0.9519 | 676.15 ± 0.3 | –
[4], 288.15 K, x2 = 0.1012 | – | 6.32 ± 0.13
[4], 288.15 K, x2 = 0.2002 | – | 5.43 ± 0.11
[4], 288.15 K, x2 = 0.3003 | – | 4.69 ± 0.09
[4], 288.15 K, x2 = 0.3997 | – | 4.07 ± 0.08
[4], 288.15 K, x2 = 0.5024 | – | 3.52 ± 0.07
[4], 288.15 K, x2 = 0.6016 | – | 3.07 ± 0.06
[4], 288.15 K, x2 = 0.7002 | – | 2.72 ± 0.05
[4], 288.15 K, x2 = 0.7979 | – | 2.42 ± 0.05
[4], 288.15 K, x2 = 0.9022 | – | 2.15 ± 0.04
[4], 288.15 K, x2 = 0.9511 | – | 2.04 ± 0.04
[4], 298.15 K, x2 = 0.1013 | – | 6.04 ± 0.12
[4], 298.15 K, x2 = 0.2013 | – | 5.2 ± 0.1
[4], 298.15 K, x2 = 0.3011 | – | 4.5 ± 0.09
[4], 298.15 K, x2 = 0.3992 | – | 3.92 ± 0.08
[4], 298.15 K, x2 = 0.503 | – | 3.41 ± 0.07
[4], 298.15 K, x2 = 0.6035 | – | 3 ± 0.06
[4], 298.15 K, x2 = 0.7028 | – | 2.67 ± 0.05
[4], 298.15 K, x2 = 0.7982 | – | 2.38 ± 0.05
[4], 298.15 K, x2 = 0.902 | – | 2.13 ± 0.04
[4], 298.15 K, x2 = 0.9497 | – | 2.03 ± 0.04
[4], 308.15 K, x2 = 0.0493 | – | 6.26 ± 0.13
[4], 308.15 K, x2 = 0.1001 | – | 5.79 ± 0.12
[4], 308.15 K, x2 = 0.2005 | – | 4.99 ± 0.1
[4], 308.15 K, x2 = 0.3016 | – | 4.34 ± 0.09
[4], 308.15 K, x2 = 0.399 | – | 3.8 ± 0.08
[4], 308.15 K, x2 = 0.5009 | – | 3.32 ± 0.07
[4], 308.15 K, x2 = 0.603 | – | 2.93 ± 0.06
[4], 308.15 K, x2 = 0.7028 | – | 2.6 ± 0.05
[4], 308.15 K, x2 = 0.802 | – | 2.33 ± 0.05
[4], 308.15 K, x2 = 0.8974 | – | 2.11 ± 0.04
[4], 308.15 K, x2 = 0.9505 | – | 2.01 ± 0.04

COCCOCCOCCOCCOC [2,5,8,11,14-pentaoxapentadecane]
Details | mass density, 288.15 K [kg/m3] | mass density, 298.15 K [kg/m3] | mass density, 308.15 K [kg/m3] | relative permittivity at zero frequency, 288.15 K | relative permittivity at zero frequency, 298.15 K | relative permittivity at zero frequency, 308.15 K
[1] | 1015.96 ± 0.3 | 1006.68 ± 0.29 | 997.27 ± 0.29 | – | – | –
[2] | – | – | – | 8.04 ± 0.16 | 7.78 ± 0.16 | 7.55 ± 0.15

COCCOCCOCCOCCOC [2,5,8,11,14-pentaoxapentadecane] + CCCCCCC
Details | mass density, [3] [kg/m3] | relative permittivity at zero frequency, [4]
288.15 K, x2 = 0.0498 | – | 7.74 ± 0.15
288.15 K, x2 = 0.0505 | 1004.42 ± 0.3 | –
288.15 K, x2 = 0.0975 | 993.3 ± 0.3 | –
288.15 K, x2 = 0.0999 | – | 7.42 ± 0.15
288.15 K, x2 = 0.1982 | 968.25 ± 0.3 | –
288.15 K, x2 = 0.2001 | – | 6.79 ± 0.14
288.15 K, x2 = 0.3 | 941.07 ± 0.3 | 6.15 ± 0.12
288.15 K, x2 = 0.3985 | – | 5.52 ± 0.11
288.15 K, x2 = 0.4 | 912.66 ± 0.3 | –
288.15 K, x2 = 0.5009 | 881.97 ± 0.3 | –
288.15 K, x2 = 0.5076 | – | 4.82 ± 0.1
288.15 K, x2 = 0.6017 | 848.59 ± 0.3 | –
288.15 K, x2 = 0.6033 | – | 4.2 ± 0.08
288.15 K, x2 = 0.6931 | 816.13 ± 0.3 | –
288.15 K, x2 = 0.7044 | – | 3.58 ± 0.07
288.15 K, x2 = 0.7998 | 775.06 ± 0.31 | –
288.15 K, x2 = 0.8028 | – | 2.99 ± 0.06
288.15 K, x2 = 0.8972 | 734.27 ± 0.31 | –
288.15 K, x2 = 0.8985 | – | 2.45 ± 0.05
288.15 K, x2 = 0.8994 | – | 2.45 ± 0.05
288.15 K, x2 = 0.9466 | 712.33 ± 0.31 | –
288.15 K, x2 = 0.9495 | – | 2.19 ± 0.04
298.15 K, x2 = 0.0496 | – | 7.49 ± 0.15
298.15 K, x2 = 0.0499 | 995.11 ± 0.3 | –
298.15 K, x2 = 0.0996 | 983.28 ± 0.3 | –
298.15 K, x2 = 0.1016 | – | 7.19 ± 0.14
298.15 K, x2 = 0.1994 | – | 6.58 ± 0.13
298.15 K, x2 = 0.1995 | 958.5 ± 0.3 | –
298.15 K, x2 = 0.2961 | 932.8 ± 0.3 | –
298.15 K, x2 = 0.299 | – | 5.97 ± 0.12
298.15 K, x2 = 0.4031 | 902.6 ± 0.3 | –
298.15 K, x2 = 0.406 | – | 5.31 ± 0.11
298.15 K, x2 = 0.4975 | 873.81 ± 0.3 | –
298.15 K, x2 = 0.5037 | – | 4.7 ± 0.09
298.15 K, x2 = 0.6024 | – | 4.1 ± 0.08
298.15 K, x2 = 0.6043 | 838.65 ± 0.3 | –
298.15 K, x2 = 0.6975 | 805.52 ± 0.3 | –
298.15 K, x2 = 0.7027 | – | 3.51 ± 0.07
298.15 K, x2 = 0.8001 | – | 2.95 ± 0.06
298.15 K, x2 = 0.8006 | 765.91 ± 0.31 | –
298.15 K, x2 = 0.8982 | 725.23 ± 0.31 | –
298.15 K, x2 = 0.9013 | – | 2.41 ± 0.05
298.15 K, x2 = 0.948 | 703.4 ± 0.31 | –
298.15 K, x2 = 0.9499 | – | 2.16 ± 0.04
308.15 K, x2 = 0.0469 | 986.65 ± 0.3 | –
308.15 K, x2 = 0.0503 | – | 7.25 ± 0.15
308.15 K, x2 = 0.0979 | 974.59 ± 0.3 | –
308.15 K, x2 = 0.1003 | – | 6.95 ± 0.14
308.15 K, x2 = 0.1976 | 949.94 ± 0.3 | –
308.15 K, x2 = 0.201 | – | 6.36 ± 0.13
308.15 K, x2 = 0.2944 | 924.23 ± 0.3 | –
308.15 K, x2 = 0.2949 | – | 5.82 ± 0.12
308.15 K, x2 = 0.3006 | 922.61 ± 0.3 | –
308.15 K, x2 = 0.3924 | – | 5.24 ± 0.1
308.15 K, x2 = 0.404 | 893.13 ± 0.3 | –
308.15 K, x2 = 0.4956 | 865.23 ± 0.3 | –
308.15 K, x2 = 0.5048 | – | 4.58 ± 0.09
308.15 K, x2 = 0.6018 | 830.49 ± 0.3 | –
308.15 K, x2 = 0.6066 | – | 3.98 ± 0.08
308.15 K, x2 = 0.6965 | 796.89 ± 0.31 | –
308.15 K, x2 = 0.7117 | – | 3.38 ± 0.07
308.15 K, x2 = 0.7981 | 758.07 ± 0.31 | –
308.15 K, x2 = 0.7999 | – | 2.9 ± 0.06
308.15 K, x2 = 0.8986 | 716.39 ± 0.31 | –
308.15 K, x2 = 0.8988 | – | 2.38 ± 0.05
308.15 K, x2 = 0.9479 | 694.69 ± 0.32 | –
308.15 K, x2 = 0.9491 | – | 2.14 ± 0.04

COCCOCCOCCOC [2,5,8,11-tetraoxadodecane]
Details | mass density, 288.15 K [kg/m3] | mass density, 298.15 K [kg/m3] | mass density, 308.15 K [kg/m3] | relative permittivity at zero frequency, 288.15 K | relative permittivity at zero frequency, 298.15 K | relative permittivity at zero frequency, 308.15 K
[1] | 990.08 ± 0.29 | 980.58 ± 0.29 | 971.07 ± 0.29 | – | – | –
[2] | – | – | – | 7.89 ± 0.16 | 7.63 ± 0.15 | 7.38 ± 0.15
